Laboratory results published in PMC6940354, “Comparative Assessment of the New PDE7 Inhibitor – GRMS-55 and Lisofylline in Animal Models of Immune-Related Disorders: A PK/PD Modeling Approach” (Pharmaceutical Research, 2020).
pIC50: −log10 of the molar value. Values after ≈ are worked out from the molar mass of the structure shown.

Key:
[1] = test system: collagen-induced arthritis (CIA) in female Lewis rats; assay: Collagen-induced arthritis in rats, paw swelling, PK/PD/DIS progression model; assay type: in vivo, rat; conditions: for decrease of relative paw swelling: at the last observation time point, once daily from day 20: rolipram 10 mg kg^−1 IP, GRMS-55 50 mg kg^−1 IP, (±)-LSF 80 mg kg^−1 SC
Protocol: The emulsion of collagen was prepared according to the Protocol for the Successful Induction of Collagen-Induced Arthritis (CIA) in Rats (Chondrex Inc., 2015). Porcine type II collagen dissolved in 0.05 M acetic acid was emulsified with incomplete Freund’s adiuvant (Sigma Aldrich, Germany) using an Omni TH Homogenizer (Omni International, Inc., USA) consisting of a blade with 5 mm diameter. The collagen solution was previously mixed with IFA at a low speed for 1 min and then at the highest speed for 2 min. Then emulsion was being cooled for 5 min in an ice water bath. The emulsification process was repeated 3 times to obtain a stiff emulsion. The emulsion was then transferred into a Hamilton glass syringe, kept at 4°C, and used within 2 h.
At a day 0 of the experiment animals were subcutaneously (SC) injected at the base of the tail with 200 μL of the emulsion using a 27 gauge × 5/8″ needle and Hamilton syringe. At day 7 after the initial immunization, a booster injection with 100 μL of emulsion was performed. Ninety % of rats developed symptoms of disease (paw swelling >150% of day 0) at day 20 of the experiment. At this day, diseased animals were randomly divided into five groups (n = 6). […] One investigated group received (±)-LSF dissolved in saline at an SC dose of 80 mg kg^−1 once daily. The corresponding control groups were administered with appropriate volumes of vehicles IP or SC. At day 40 animals were sacrificed. Hind paws of rats were taken and immersed into 4% buffered formalin solution for a subsequent histological analysis. Blood samples were collected and allowed to clot for 20 min and then centrifuged at 2000 x g for 15 min. Serum samples were collected and frozen at -80°C.
Paw edema of arthritic rats was assessed as swelling of the rat hind paws. Measurements of paws were performed using a digital caliper according to the procedure described by Earp et al. ([18]). Each hind leg was measured at two sections, i.e., paw and ankle, and each section was measured at two places (side-to-side and top-to-bottom). The area of each section (elliptical in shape) was calculated from the following equation:2 Area=π·a·b/4 where (a) is side-to-side diameter of the ellipse and (b) is top-to-bottom diameter of the ellipse. Paw and ankle section areas of each leg were subsequently added to obtain one overall measure for the rat hind paw (Areaoverall). Each of these measures was normalized to the same hind paw area measured at day 0 of the experiment (Areazero) to reduce variation in the disease progression resulting from differences in paw size of each rat. Relative paw swelling (Paw) was calculated according to the equation:3 Paw=Areaoverall/Areazero
Paw size was measured at days 0, 5, 7, 11, 15, 18, 20, 22, 26, 30, 33, and 36 after the first immunization. […]

hrPDE4D = hrPDE4D (Homo sapiens, UniProt Q08499); assay: PDE-Glo Phosphodiesterase Assay, hrPDE4D
Protocol: Inhibitory activity of the investigated and reference compounds against various subtypes of PDEs was analyzed using the PDE-Glo Phosphodiesterase Assay following the manufacturer’s instruction (Promega Corp., USA). […] The values of IC50, Imax, and γ parameters of the investigated and reference compounds were estimated using non-linear regression in Phoenix WinNonlin v. […] Each sample was performed in quadruplicate and the relative activity of each sample was calculated as E=sample activity/control activity·100% .
One and a half μL aliquots of PDE-Glo reaction buffer containing appropriate amounts of human recombinant PDE (hrPDE) 1B, 2A, 3A, 4B, 4D, 5A, 7A, or 10A (SignalChem, Richmond, Canada) were placed into separate wells of a 384-well plate (Thermo Scientific, USA). The investigated compounds were initially dissolved in DMSO and then a serial dilution with DMSO was performed. Each dilution was mixed with PDE-Glo reaction buffer at a ratio of 1:5 (v/v). Then, 1 μL of the solution containing a PDE inhibitor and 2.5 μL of the substrate solution were added to each well. cGMP was used as a substrate in the case of hrPDE2A and hrPDE5A, while cAMP for other types of hrPDEs. The samples were incubated for 10 min at 30°C. […] The luminescence of each sample was measured by a microplate reader POLARstar Omega (BMG LABTECH, Germany).

[2] = Pharmacokinetics in male Wistar rats; assay type: in vivo, rat; conditions: for half-life: male rats (Wistar), IV, read-out: elimination half-life
Protocol: The same vehicles as these in pharmacodynamic studies for each compound and route of administration were used. Rats were implanted with catheters into the jugular vein and after a two-day period they were administered with the investigated compounds by the listed above routes of administration. […] Samples were subsequently centrifuged at 3000 × g for 10 min. Plasma was stored at −80°C until analysis.
A detailed description of these methods has been provided in the supplementary materials.
Firstly, the concentration-time data collected for each individual compound from one of the investigated rat strains (Wistar or Lewis) were subjected to a non-compartmental analysis (NCA). Subsequently, pharmacokinetic models were developed for each investigated compound and strain of rat. One- and two- compartment models with linear or non-linear elimination were tested. […] The final models were chosen based on the goodness-of-fit criteria, such as Akaike Information Criterion (AIC), Schwarz Bayesian Criterion (SBC), weighted sum of squared residuals (WSSR), a visual inspection of fitting, and precision of estimated parameters expressed as coefficients of variation % (CVs%). NCA analysis was performed in Phoenix WinNonlin v. 7.0 (Pharsight Corp., a Certara Company, Princeton, New Jersey). Pharmacokinetic model parameters were estimated in ADAPT 5 software (BMSR, Los Angeles, CA) using the weighted least squares algorithm. Fraction of the dose absorbed (F) following an extravascular (EV) administration was calculated according to the Eq. 4:4 F=AUC0−tEV·DIV/AUC0−tIV·DEV where AUC0-t is the area under concentration versus time curve from 0 to the last measured point and D is dose.
PK/PD and PK/PD/DIS progression models were developed considering the mechanism of action of the investigated compounds, the mechanisms of disease progression in the case of CIA, and the subsequent stages leading to TNF-α release in the case of LPS-induced endotoxemia. Various numbers of transit compartments were tested during development of the models, and the final models were chosen based on the goodness-of-fit criteria, such as AIC, SBC, a visual inspection of the fitting, and parameter precision. Estimated values of pharmacokinetic parameters were fixed during PK/PD and PK/PD/DIS progression model fitting procedures. […] PK/PD and PK/PD/DIS progression modeling were performed in ADAPT 5 software using the weighted least squares algorithm.
The applied model is a modified indirect response model ([19]) with implemented transit compartments (T1-T4) that describe the delay of the observed pharmacodynamic response. In this scheme τ is the mean transit time, kin is the time limited (from 0 to tlag) zero-order rate constant of production of a TNF-α precursor (e.g., TNF-α mRNA). […]

[3] = Rattus norvegicus, 480 h, read-out: IC50, concentration producing 50% of maximal inhibition (CIA progression), Final estimate (CV%)

Sequence of hrPDE4D (Q08499 whole entry): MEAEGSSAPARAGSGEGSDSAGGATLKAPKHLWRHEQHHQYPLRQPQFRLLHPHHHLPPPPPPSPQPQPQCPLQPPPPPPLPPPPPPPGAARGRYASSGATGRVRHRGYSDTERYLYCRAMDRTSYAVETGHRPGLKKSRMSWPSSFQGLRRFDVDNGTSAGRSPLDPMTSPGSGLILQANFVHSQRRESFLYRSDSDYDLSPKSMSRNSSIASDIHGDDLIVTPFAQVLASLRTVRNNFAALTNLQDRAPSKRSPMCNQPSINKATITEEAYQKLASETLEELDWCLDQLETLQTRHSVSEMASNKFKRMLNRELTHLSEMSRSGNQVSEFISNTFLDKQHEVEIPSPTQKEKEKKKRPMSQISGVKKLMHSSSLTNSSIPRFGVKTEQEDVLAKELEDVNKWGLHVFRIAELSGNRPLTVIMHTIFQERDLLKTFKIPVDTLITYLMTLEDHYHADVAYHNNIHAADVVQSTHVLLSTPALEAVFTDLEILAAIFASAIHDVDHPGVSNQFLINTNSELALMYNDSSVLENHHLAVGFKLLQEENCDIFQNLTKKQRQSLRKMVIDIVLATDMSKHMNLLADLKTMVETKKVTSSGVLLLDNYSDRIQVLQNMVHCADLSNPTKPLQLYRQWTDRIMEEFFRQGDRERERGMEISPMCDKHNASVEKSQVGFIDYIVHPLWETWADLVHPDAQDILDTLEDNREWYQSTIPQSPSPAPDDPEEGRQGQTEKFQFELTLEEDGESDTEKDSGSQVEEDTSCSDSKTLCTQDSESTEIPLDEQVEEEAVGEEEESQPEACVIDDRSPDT

Row | pIC50 (hrPDE4D) | elimination rate constant, times lower than that of rolipram ([2]; compared to rolipram) | Vd ([2]; rat, plasma, male Wistar rats, GRMS-55 IV 20 mg kg^−1, 1-compartment model, read-out: V(GRMS-55), volume of distribution, Estimate (CV%)) [L/kg] | IC50 at 50 mg/kg [1, 3] [µg/mL] | SMILES | decrease of relative paw swelling [1] [%] | half-life ([2]; rat, plasma) [min] | IC50 [1, 3] [µg/mL]
1 | < 3.70 | – | – | – | CC(O)CCCCn1c(=O)c2c(ncn2C)n(C)c1=O (racemic) [(±)-LSF, lisofylline] | 30.5 | – | –
2 | – | – | – | – | COc1ccc(C2CNC(=O)C2)cc1OC1CCCC1 (stereo not shown) [Rolipram, rolipram] | – | 11 | 0.01 (≈ 0.0363 µM)
3 | < 3.70 | approx. 2 times | 1.59 | 0.26 (≈ 0.516 µM) | Cn1c(=O)c2c(nc(NCCc3ccccc3)n2CCCC(=O)NN=Cc2ccccc2O)n(C)c1=O [GRMS-55, 4-(1,3-Dimethyl-2,6-dioxo-8-(phenethylamino)-2,3,6,7-tetrahydro-1H-purin-7-yl)-N′-(2-hydroxybenzylidene)butanehydrazide] | 31.5 | 22 | –
